Literature values as cited in US20090269770A1, “METHODS FOR EVALUATION PROGNOSIS AND FOLLOW-UP OF DRUG TREATMENT OF PSYCHIATRIC DISEASES OR DISORDERS” (priority 2008, published 2009).

Test system: negative symptoms of schizophrenia
Conditions: non-serotonergic antidepressant add-on (Silver and Shmugliakov, 1998); cited from earlier work

CNCCCC12CCC(c3ccccc31)c1ccccc12 [maprotaline]
effect on negative symptoms: did not improve negative symptoms
